# Measured values reported in patent US20230012368A1 (Hoffmann-La Roche Inc., priority 2018, published 2023).
# Counter-ions that a name gives are not always drawn.
# Tested on: Acinetobacter baumannii ATCC 17978
# Assay: Antimicrobial susceptibility testing: 90% growth inhibitory concentration (IC90) determination
# Type: cell-based
# Conditions: 90% growth inhibitory concentration; Acinetobacter baumannii ATCC17978; Iso-Sensitest broth, OD 600 nm over 16h; read-out: ATCC17978 IC90
# Summary of the method: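 Growth of the Acinetobacter baumannii strain was followed by optical density at 600 nm every 20 minutes for 16h at 35±2° C. Inoculum was ~5×10^(5) CFU/ml in Iso-Sensitest medium, with twofold compound dilutions (e.g. 50 to 0.097 μM final). The 90% inhibitory concentration was derived in log-phase growth.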
row,SMILES,IC90 [nM]
1,"CCc1cc(Nc2nccn3c(-c4ccc(OC)c(F)c4F)cnc23)ccc1C(=O)N[C@H](CN)C(=O)OC [Example 310, methyl (2R)-3-amino-2-[[4-[[3-(2,3-difluoro-4-methoxyphenyl)imidazo[1,2-a]pyrazin-8-yl]amino]-2-ethylbenzoyl]amino]propanoate; hydrochloride]",800
2,"CCc1cc(Nc2nccn3c(-c4ccc(OC)c(F)c4F)cnc23)ccc1C(=O)NCC(=O)N(C)CCNC [Example 158, 4-((3-(2,3-difluoro-4-methoxyphenyl)imidazo[1,2-a]pyrazin-8-yl)amino)-2-ethyl-N-(2-(methyl(2-(methylamino)ethyl)amino)-2-oxoethyl)benzamide; formic acid]",160
3,"CCc1cc(Nc2nccn3c(-c4ccc(Oc5ncccn5)c(F)c4F)cnc23)ccc1C(=O)NCCNC(=O)[C@@H](N)CCNC(=N)N [Example 438, N-[2-[[(2S)-2-amino-4-guanidino-butanoyl]amino]ethyl]-4-[[3-(2,3-difluoro-4-pyrimidin-2-yloxy-phenyl)imidazo[1,2-a]pyrazin-8-yl]amino]-2-ethyl-benzamide; formic acid]",550
4,"CCc1cc(Nc2nccn3c(-c4ccc(OC)c(F)c4F)cnc23)ccc1C(=O)N[C@@H](CCN)C(=O)OC [Example 322, methyl (2S)-4-amino-2-[[4-[[3-(2,3-difluoro-4-methoxyphenyl)imidazo[1,2-a]pyrazin-8-yl]amino]-2-ethylbenzoyl]amino]butanoate; hydrochloride]",4400

# Same assay, conditions: Acinetobacter baumannii, ATCC17978, 16 h, 90% growth inhibitory concentration; Acinetobacter baumannii ATCC17978; Iso-Sensitest broth, OD 600 nm over 16h; read-out: ATCC17978 IC90
row,SMILES,IC90 [nM]
1,"COc1ccc(-c2cnc3c(Nc4ccc(C(=O)N(C)C)c(C)c4)nccn23)c(F)c1F [Example 1, 4-((3-(2,3-difluoro-4-methoxyphenyl)imidazo[1,2-a]pyrazin-8-yl)amino)-N,N,2-trimethylbenzamide]",120
2,"CCc1cc(Nc2nccn3c(-c4ccc(OC)c(F)c4F)cnc23)ccc1C(=O)NCCNC(=O)[C@@H](N)CO [Example 373, N-[2-[[(2S)-2-amino-3-hydroxypropanoyl]amino]eth-yl]-4-[[3-(2,3-difluoro-4-methoxyphenyl)imidazo[1,2-a]pyrazin-8-yl]amino]-2-ethylbenzamide]",150
3,"CCc1cc(Nc2nccn3c(-c4ccc(OC)c(F)c4F)cnc23)ccc1C(=O)NCC(O)CO (stereo not shown) [Example 483, 4-((3-(2,3-difluoro-4-methoxyphenyl)imidazo[1,2-a]pyrazin-8-yl)amino)-N-(2,3-dihydroxypropyl)-2-ethylbenzamide]",210
4,"CCc1cc(Nc2nccn3c(-c4ccc(OC(F)F)c(F)c4F)cnc23)ccc1C(=O)NCCC(=O)N1CCNCC1 [Example 542, 4-((3-(4-(difluoromethoxy)-2,3-difluorophenyl)imidazo[1,2-a]pyrazin-8-yl)amino)-2-ethyl-N-(3-oxo-3-(piperazin-1-yl)propyl)benzamide 2,2,2-trifluoroacetate]",54
5,"COc1ccc(-c2cnc3c(Nc4ccc(C(=O)NCCCNC(=O)[C@@H]5C[C@@H](O)CN5)c(C)c4)nccn23)c(F)c1F [Example 358, (2S,4R)-N-[3-[[4-[[3-(2,3-difluoro-4-methoxyphenyl)imidazo[1,2-a]pyrazin-8-yl]amino]-2-methylbenzoyl]amino]propyl]-4-hydroxypyrrolidine-2-carboxamide]",50
6,"CCc1cc(Nc2nccn3c(-c4ccc(OCC#N)c(F)c4F)cnc23)ccc1C(=O)NCCNC(=O)CC(O)CN (stereo not shown) [Example 142, N-[2-[(4-amino-3-hydroxy-butanoyl)amino]ethyl]-4-[[3-[4-(cyanomethoxy)-2,3-difluoro-phenyl]imidazo[1,2-a]pyrazin-8-yl]amino]-2-ethyl-benzamide formate]",130
7,"COc1ccc(-c2cnc3c(Nc4ccc(C(=O)NCC5CCNCC5)c(C)c4)nccn23)c(F)c1F [Example 55, 4-[[3-(2,3-difluoro-4-methoxy-phenyl)imidazo[1,2-a]pyrazin-8-yl]amino]-2-methyl-N-(4-piperidylmethyl) benzamide]",260
8,"CCc1cc(Nc2nccn3c(-c4ccc(Oc5ccc(F)cn5)c(F)c4F)cnc23)ccc1C(=O)NCCNC(=O)[C@H](N)CCCNC(=N)N [Example 424, N-[2-[[(2R)-2-amino-5-guanidino-pentanoyl]amino]ethyl]-4-[[3-[2,3-difluoro-4-[(5-fluoro-2-pyridyl)oxy]phenyl]imidazo [1,2-a]pyrazin-8-yl]amino]-2-ethyl-benzamide; formic acid]",900
9,"CCc1cc(Nc2nccn3c(-c4ccc(OC)c(F)c4F)cnc23)ccc1C(=O)NCC(=O)NCCO [Example 423, 4-((3-(2,3-difluoro-4-methoxyphenyl)imidazo[1,2-a]pyrazin-8-yl)amino)-2-ethyl-N-(2-((2-hydroxyethyl)amino)-2-oxoethyl)benzamide]",210
10,"CCc1cc(Nc2nccn3c(-c4ccc(OC(F)F)c(F)c4F)cnc23)ccc1C(=O)NCCCO[C@@H]1O[C@H](CO)[C@@H](O)[C@H](O)[C@H]1O [Example 442, 4-((3-(4-(difluoromethoxy)-2,3-difluorophenyl)imidazo[1,2-a]pyrazin-8-yl)amino)-2-ethyl-N-(3-(((2R,3R,4S,5S,6R)-3,4,5-trihydroxy-6-(hydroxymethyl)tetrahydro-2H-pyran-2-l)oxy)propyl)benzamide]",410
11,"Cc1cc(Nc2nccn3c(-c4ccc(OC(F)F)cc4)cnc23)ccc1C(=O)N(C)CCCCN [Example 200, N-(4-aminobutyl)-4-[[3-[4-(difluoromethoxy)phenyl]im-idazo[1,2-a]pyrazin-8-yl]amino]-N,2-dimethylbenzamide;hydrochlo-ride]",440
12,"COc1ccc(-c2cnc3c(Nc4ccc(C(=O)NCCCCCN)c(C)c4)nccn23)c(F)c1F [Example 491, N-(5-aminopentyl)-4-((3-(2,3-difluoro-4-methoxyphenyl)imidazo[1,2-a]pyrazin-8-yl)amino)-2-methylbenzamide hydrochloride]",41
13,"O=C(NCC1CCNCC1)c1ccc(Nc2nccn3c(-c4ccc(OC(F)F)c(F)c4F)cnc23)cc1Cl [Example 43, 2-chloro-4-[[3-[4-(difluoromethoxy)-2,3-difluoro-phenyl]imidazo[1,2-a]pyrazin-8-yl]amino]-N-(4-piperidylmethyl) benzamide; 2,2,2-trifluoroacetic acid]",220
14,"CCc1cc(Nc2nccn3c(-c4ccc(OC)c(F)c4F)cnc23)ccc1C(=O)N[C@H](C)CN [Example 101, (R)-N-(1-aminopropan-2-yl)-4-((3-(2,3-difluoro-4-methoxyphenyl)imidazo [1,2-a]pyrazin-8-yl)amino)-2-ethylbenzamide dihydrochloride]",240
15,"CCc1cc(Nc2nccn3c(-c4ccc(Oc5ccncn5)c(F)c4F)cnc23)ccc1C(=O)NCCNC(=O)CCN [Example 432, N-[2-(3-aminopropanoylamino)ethyl]-4-[[3-(2,3-difluoro-4-pyrimidin-4-yloxy-phenyl)imidazo[1,2-a]pyrazin-8-yl]amino]-2-ethyl-benzamide; formic acid]",500
16,"CCc1cc(Nc2nccn3c(-c4ccc(OCC#N)c(F)c4F)cnc23)ccc1C(=O)NCCNC(=O)CCN [Example 137, N-[2-(3-aminopropanoyl-amino)ethyl]-4-[[3-[4-(cyanomethoxy)-2,3-difluoro-phenyl]imidazo[1,2-a]pyrazin-8-yl]amino]-2-ethyl-benzamide formate]",70
17,"COc1ccc(-c2cnc3c(Nc4ccc(C(=O)NCCN5CCNCC5)c(Cl)c4)nccn23)c(F)c1F [Example 59, 2-chloro-4-[[3-(2,3-difluoro-4-methoxy-phenyl)imidazo[1,2-a]pyrazin-8-yl]amino]-N-(2-piperazin-1-ylethyl)benzamide]",130
18,"COc1ccc(-c2cnc3c(Nc4ccc(C(=O)N(C)CCN5CCCCC5)c(C)c4)nccn23)cc1F [Example 267, 4-[[3-(3-fluoro-4-methoxyphenyl)imidazo[1,2-a]pyrazin-8-yl]amino]-N,2-dimethyl-N-(2-piperidin-1-ylethyl)benzamide]",5400
19,"CCc1cc(Nc2nccn3c(-c4ccc(OC)c(F)c4F)cnc23)ccc1C(=O)NCC1(F)CNC1 [Example 526, 4-((3-(2,3-difluoro-4-methoxyphenyl)imidazo[1,2-a]pyrazin-8-yl)amino)-2-ethyl-N-((3-fluoroazetidin-3-yl)methyl)benzamide hydrochloride]",210
20,"Cc1cc(Nc2nccn3c(-c4ccc(OC(F)F)cc4)cnc23)ccc1C(=O)N[C@@H](C)CN [Example 269, N-[(2S)-1-aminopropan-2-yl]-4-[[3-[4-(difluoromethoxy)phenyl]im-idazo[1,2-a]pyrazin-8-yl]amino]-2-methylbenzamide;hydrochlo-ride]",7100
21,"CCc1cc(Nc2nccn3c(-c4ccc(OC)c(F)c4F)cnc23)ccc1C(=O)NC[C@H](C)N [Example 522, (S)-N-(2-aminopropyl)-4-((3-(2,3-difluoro-4-methoxyphenyl)imidazo[1,2-a]pyrazin-8-yl)amino)-2-ethylbenzamide hydrochloride]",260
22,"COc1ccc(-c2cnc3c(Nc4ccc(C(=O)N(C)CCO)cc4)nccn23)cc1 [Example 235, N-(2-hydroxyethyl)-4-[[3-(4-methoxyphenyl)imidazo[1,2-a]pyrazin-8-yl]amino]-N-methylbenzamide]",1000
23,"COc1ccc(-c2cnc3c(Nc4ccc(C(=O)N5CCN(C(=O)[C@@H]6C[C@@](C)(O)CN6)CC5)c(C)c4)nccn23)c(F)c1F [Example 362, [4-[[3-(2,3-difluoro-4-methoxyphenyl)imidazo[1,2-a]pyrazin-8-yl]amino]-2-methylphenyl]-[4-[(2S,4R)-4-hydroxy-4-methylpyrrolidine-2-carbonyl]piperazin-1-yl]methanone]",80
24,"CCN(CC)C(=O)c1ccc(Nc2nccn3c(-c4ccc(OC)cc4)cnc23)cc1 [Example 227, N,N-diethyl-4-[[3-(4-methoxyphenyl)imidazo[1,2-a]pyrazin-8-yl]amino]benzamide]",610
